Here are results for three compounds from ChEMBL document CHEMBL4765296, “Purine/purine isoster based scaffolds as new derivatives of benzamide class of HDAC inhibitors” (Eur J Med Chem, 2020).

A short description of one assay: cells. Particulars: Homo sapiens, YCC-11, 72 h.
For the next assay, the system named is MDA-MB-468. Kind of assay: Cytotoxicity in human MDA-MB-468 cells assessed as reduction in cell viability incubated for 72 hrs by MTT assay. Format: functional, cell-based.
Assay [1] deals with MDA-MB-231. Kind of assay: Antiproliferative activity against human MDA-MB-231 cells assessed as cell growth inhibition measured after 72 hrs by MTT assay. Format: functional, cell-based. Particulars: MDA-MB-231, 72 h.
A further assay relates to HepG2. Kind of assay: cells. Particulars: Homo sapiens, HepG2, 72 h.
Assay [2] is described as follows: Cytotoxicity against human HDACi-sensitive YCC3 cells assessed as reduction in cell growth incubated for 72 hrs by MTS assay. It is filed as functional, cell-based. Particulars: YCC3/7, 72 h.
Another assay relates to MCF7. Kind of assay: Cytotoxicity in human MCF7 cells assessed as reduction in cell viability incubated for 72 hrs by MTT assay. It is filed as functional, cell-based.
Another assay addresses Histone deacetylase 5 (Homo sapiens, UniProt Q9UQL6). Kind of assay: Inhibition of human recombinant HDAC5 expressed in baculovirus using fluorogenic peptide p53 residues 379-382 (RHKK(Ac)AMC) as substrate by Fluorescence analysis.
The next assay concerns the target T1, Histone deacetylase 7 (Homo sapiens, UniProt Q8WUI4).
T1 sequence (Q8WUI4 whole entry): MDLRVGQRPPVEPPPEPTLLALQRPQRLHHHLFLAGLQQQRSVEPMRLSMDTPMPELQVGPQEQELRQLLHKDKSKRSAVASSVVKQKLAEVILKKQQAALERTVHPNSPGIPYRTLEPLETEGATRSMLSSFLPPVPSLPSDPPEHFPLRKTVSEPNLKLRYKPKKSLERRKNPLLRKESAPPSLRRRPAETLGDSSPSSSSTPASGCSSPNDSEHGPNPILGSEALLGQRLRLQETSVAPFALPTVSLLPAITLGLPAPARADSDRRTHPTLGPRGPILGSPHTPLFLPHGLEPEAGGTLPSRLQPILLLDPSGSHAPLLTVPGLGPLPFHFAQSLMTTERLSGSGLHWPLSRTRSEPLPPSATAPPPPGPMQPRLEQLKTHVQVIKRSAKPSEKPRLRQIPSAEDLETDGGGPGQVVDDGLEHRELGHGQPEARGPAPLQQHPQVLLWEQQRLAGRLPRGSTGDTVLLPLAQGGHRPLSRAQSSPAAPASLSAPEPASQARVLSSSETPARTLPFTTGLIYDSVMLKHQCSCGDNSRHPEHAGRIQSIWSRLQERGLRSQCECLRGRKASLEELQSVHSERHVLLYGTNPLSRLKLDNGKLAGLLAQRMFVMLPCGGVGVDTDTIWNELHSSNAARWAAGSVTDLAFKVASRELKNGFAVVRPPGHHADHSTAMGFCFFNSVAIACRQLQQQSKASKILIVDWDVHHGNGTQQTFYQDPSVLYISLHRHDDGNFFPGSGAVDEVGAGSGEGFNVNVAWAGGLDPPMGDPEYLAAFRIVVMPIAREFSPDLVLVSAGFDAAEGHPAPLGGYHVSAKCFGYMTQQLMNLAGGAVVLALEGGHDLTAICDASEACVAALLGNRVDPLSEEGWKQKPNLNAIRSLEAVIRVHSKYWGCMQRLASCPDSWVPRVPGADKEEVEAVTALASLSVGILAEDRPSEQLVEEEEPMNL
Kind of assay: Inhibition of human recombinant HDAC7 expressed in baculovirus using fluorogenic peptide p53 residues 379-382 (RHKK(Ac)AMC) as substrate by Fluorescence analysis.

In the next assay the target is Histone deacetylase 9 (Homo sapiens, UniProt Q9UKV0). Briefly: Inhibition of human recombinant HDAC9 expressed in baculovirus using fluorogenic peptide p53 residues 379-382 (RHKK(Ac)AMC) as substrate by Fluorescence analysis.
The target in another assay is Histone deacetylase 4 (Homo sapiens, UniProt P56524). Kind of assay: Inhibition of human recombinant HDAC4 expressed in baculovirus using fluorogenic peptide p53 residues 379-382 (RHKK(Ac)AMC) as substrate by Fluorescence analysis.
Assay [3] relates to MDA-MB-231. Briefly: Induction of cell cycle arrest in human MDA-MB-231 cells assessed as accumulation of cells at subG1 phase at 16 uM for 48 hrs by PI staining based flow cytometry analysis. Format: functional.
The test system of assay [4] is MDA-MB-231. Kind of assay: Induction of apoptosis in human MDA-MB-231 cells assessed as increase in cleaved caspase-8 level incubated for 24 hrs by Western blot analysis. Format: functional, cell-based.
The test system of assay [5] is MDA-MB-231. Briefly: Induction of apoptosis in human MDA-MB-231 cells assessed as increase in cleaved PARP-1 level incubated for 24 hrs by Western blot analysis. It is filed as functional, cell-based.
Assay [6] deals with MDA-MB-231. Kind of assay: Induction of apoptosis in human MDA-MB-231 cells assessed as increase in cleaved caspase-3 level incubated for 24 hrs by Western blot analysis. It is filed as functional, cell-based.
The subject of assay [7] is MDA-MB-231. Briefly: Induction of cell cycle arrest in human MDA-MB-231 cells assessed as reduction in population at S phase at 4 uM for 24 hrs by PI staining based flow cytometry analysis. It is filed as functional.
For assay [8], the system named is MDA-MB-231. Kind of assay: Induction of cell cycle arrest in human MDA-MB-231 cells assessed as accumulation of cells at G1 phase at 4 uM for 24 hrs in presence of nocodazole by PI staining based flow cytometry analysis. It is filed as functional.
Assay [9] has as its system MDA-MB-231. Kind of assay: Induction of cell cycle arrest in human MDA-MB-231 cells assessed as reduction in population between G1 to G2/M phases at 4 uM for 24 hrs by PI staining based flow cytometry analysis. Format: functional.

Structures are written as SMILES. Calls of active or inactive are those of the source. No cut-off for these calls is given here.

Histone deacetylase 4, sequence (P56524 whole entry, the tested form may be a part): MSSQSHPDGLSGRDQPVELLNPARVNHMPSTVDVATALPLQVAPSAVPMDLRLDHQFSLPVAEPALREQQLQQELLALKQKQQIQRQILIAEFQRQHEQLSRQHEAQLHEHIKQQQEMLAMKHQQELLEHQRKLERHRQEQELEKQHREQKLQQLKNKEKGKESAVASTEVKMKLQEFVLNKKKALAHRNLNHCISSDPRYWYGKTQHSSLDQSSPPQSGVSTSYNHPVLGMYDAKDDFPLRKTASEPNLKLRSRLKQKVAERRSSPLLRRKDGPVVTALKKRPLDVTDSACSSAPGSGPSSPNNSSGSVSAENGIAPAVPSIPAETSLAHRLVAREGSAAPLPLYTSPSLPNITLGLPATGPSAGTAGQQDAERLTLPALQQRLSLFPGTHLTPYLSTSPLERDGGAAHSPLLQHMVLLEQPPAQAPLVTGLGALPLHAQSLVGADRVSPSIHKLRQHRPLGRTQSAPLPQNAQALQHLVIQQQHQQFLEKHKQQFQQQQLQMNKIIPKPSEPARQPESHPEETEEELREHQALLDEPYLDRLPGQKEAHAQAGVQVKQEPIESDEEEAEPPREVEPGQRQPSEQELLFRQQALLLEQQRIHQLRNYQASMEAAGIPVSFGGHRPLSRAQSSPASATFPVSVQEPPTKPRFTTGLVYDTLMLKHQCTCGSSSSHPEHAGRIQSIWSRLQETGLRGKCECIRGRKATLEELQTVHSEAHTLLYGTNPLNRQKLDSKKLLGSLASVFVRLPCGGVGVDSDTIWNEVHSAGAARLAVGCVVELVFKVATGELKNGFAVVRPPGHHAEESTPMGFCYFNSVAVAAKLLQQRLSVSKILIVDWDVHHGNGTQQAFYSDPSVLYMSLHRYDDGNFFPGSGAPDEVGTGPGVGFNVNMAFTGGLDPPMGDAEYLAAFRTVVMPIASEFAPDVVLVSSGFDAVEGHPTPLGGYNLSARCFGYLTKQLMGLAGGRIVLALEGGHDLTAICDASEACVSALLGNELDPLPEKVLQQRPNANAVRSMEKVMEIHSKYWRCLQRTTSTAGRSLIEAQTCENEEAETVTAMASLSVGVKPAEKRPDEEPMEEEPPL
Histone deacetylase 9, sequence (Q9UKV0 whole entry, the tested form may be a part): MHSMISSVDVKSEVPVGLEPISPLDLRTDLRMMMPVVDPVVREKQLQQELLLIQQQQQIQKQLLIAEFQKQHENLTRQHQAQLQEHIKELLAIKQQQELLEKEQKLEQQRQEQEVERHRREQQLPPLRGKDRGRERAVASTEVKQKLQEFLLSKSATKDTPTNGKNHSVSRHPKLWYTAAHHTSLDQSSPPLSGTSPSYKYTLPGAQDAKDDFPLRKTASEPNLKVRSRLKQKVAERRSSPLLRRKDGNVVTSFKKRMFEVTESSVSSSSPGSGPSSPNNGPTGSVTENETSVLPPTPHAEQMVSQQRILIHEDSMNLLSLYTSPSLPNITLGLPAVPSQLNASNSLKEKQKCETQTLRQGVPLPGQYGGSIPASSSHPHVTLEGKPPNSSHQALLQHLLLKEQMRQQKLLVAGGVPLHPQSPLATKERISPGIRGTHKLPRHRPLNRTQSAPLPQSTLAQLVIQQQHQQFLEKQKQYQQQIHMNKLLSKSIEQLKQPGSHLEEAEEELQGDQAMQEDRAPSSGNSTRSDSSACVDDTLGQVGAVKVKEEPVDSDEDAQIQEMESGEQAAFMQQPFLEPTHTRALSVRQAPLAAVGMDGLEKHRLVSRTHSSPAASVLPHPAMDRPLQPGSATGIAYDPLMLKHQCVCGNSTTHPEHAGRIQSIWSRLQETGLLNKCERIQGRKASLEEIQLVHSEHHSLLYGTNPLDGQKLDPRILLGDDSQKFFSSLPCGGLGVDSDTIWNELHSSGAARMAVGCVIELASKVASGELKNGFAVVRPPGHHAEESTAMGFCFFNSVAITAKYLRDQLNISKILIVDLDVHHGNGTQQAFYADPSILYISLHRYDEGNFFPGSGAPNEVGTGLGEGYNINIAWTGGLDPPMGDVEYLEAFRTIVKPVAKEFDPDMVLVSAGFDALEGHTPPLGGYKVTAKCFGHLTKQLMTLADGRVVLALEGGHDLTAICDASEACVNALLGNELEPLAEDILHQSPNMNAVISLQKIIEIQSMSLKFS
Histone deacetylase 5, sequence (Q9UQL6 whole entry, the tested form may be a part): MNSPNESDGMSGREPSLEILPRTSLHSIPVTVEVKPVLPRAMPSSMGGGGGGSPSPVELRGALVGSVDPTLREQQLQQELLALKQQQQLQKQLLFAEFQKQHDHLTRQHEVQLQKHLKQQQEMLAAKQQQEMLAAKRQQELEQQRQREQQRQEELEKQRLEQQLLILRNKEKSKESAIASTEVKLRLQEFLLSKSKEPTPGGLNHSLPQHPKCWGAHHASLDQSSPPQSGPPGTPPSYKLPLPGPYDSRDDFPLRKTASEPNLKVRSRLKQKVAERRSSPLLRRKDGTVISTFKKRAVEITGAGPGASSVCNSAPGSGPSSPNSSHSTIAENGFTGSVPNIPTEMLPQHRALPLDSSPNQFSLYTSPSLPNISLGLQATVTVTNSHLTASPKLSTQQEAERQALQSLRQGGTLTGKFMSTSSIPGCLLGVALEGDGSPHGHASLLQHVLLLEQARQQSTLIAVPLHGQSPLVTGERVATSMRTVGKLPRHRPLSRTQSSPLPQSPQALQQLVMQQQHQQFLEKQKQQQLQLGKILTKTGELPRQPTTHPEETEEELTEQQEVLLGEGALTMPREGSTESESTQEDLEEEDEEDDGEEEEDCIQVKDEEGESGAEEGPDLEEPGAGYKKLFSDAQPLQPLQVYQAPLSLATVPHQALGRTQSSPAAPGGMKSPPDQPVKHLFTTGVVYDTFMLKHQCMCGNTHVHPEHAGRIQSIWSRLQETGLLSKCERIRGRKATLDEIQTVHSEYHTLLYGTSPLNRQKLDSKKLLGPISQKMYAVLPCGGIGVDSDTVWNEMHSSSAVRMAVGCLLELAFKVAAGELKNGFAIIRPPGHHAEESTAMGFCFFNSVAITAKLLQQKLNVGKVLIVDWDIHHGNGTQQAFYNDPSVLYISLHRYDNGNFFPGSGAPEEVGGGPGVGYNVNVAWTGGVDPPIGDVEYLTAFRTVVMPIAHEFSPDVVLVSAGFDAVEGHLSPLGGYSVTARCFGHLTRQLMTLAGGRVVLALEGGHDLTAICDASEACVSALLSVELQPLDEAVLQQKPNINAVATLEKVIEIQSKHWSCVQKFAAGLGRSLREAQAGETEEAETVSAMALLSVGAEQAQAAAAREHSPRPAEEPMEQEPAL
Description for HepG2: Antiproliferative activity against human HepG2 cells assessed as cell growth inhibition measured after 72 hrs by MTT assay

As for `Nc1ccc(F)cc1NC(=O)c1ccc(CNC(=O)/C=C/c2cccnc2)cc1`, the IC50 in “cells” was 17.1 µM; in the assay on MDA-MB-231 [1], 3.6 µM; in the assay with HepG2, greater than 8 µM; in assay [2], 20.4 µM. Moreover, the result with MDA-MB-468 and in the assay with MCF7 was Active.

Consider `Nc1nc(Nc2ccc(F)c(Cl)c2)c2ncn(Cc3ccc(C(=O)Nc4ccccc4N)cc3)c2n1`, for which the IC50 at Histone deacetylase 5, on Histone deacetylase 7, at Histone deacetylase 9 and on Histone deacetylase 4 was greater than 10 µM in each case.

As for `Nc1ccccc1NC(=O)c1ccc(CNC(=O)OCc2cccnc2)cc1` [ENTINOSTAT], the result in the assay on MDA-MB-231 [3], in the assay with MDA-MB-231 [4], in the assay with MDA-MB-231 [5], in the assay on MDA-MB-468, in the assay on MDA-MB-231 [6] and with MDA-MB-231 [7] was Active. The outcome with MDA-MB-231 [8], in the assay with MDA-MB-231 [9] and with MCF7 was Active. Further, the IC50 worked out at 4.54 µM with HepG2 and 13 µM in [2].
